This is an account of results in patent US10077261B2, “Imidazolin-5-one derivative useful as FASN inhibitors for the treatment of cancer” (Janssen Pharmaceutica NV, priority 2012, dated 2018).

For orientation: inhibition means the change of the read-out against control, counted positive when it falls.

The target of assay [1] is Fatty Acid Synthase Keto-reductase Domain (FASN KR) (Homo sapiens, UniProt P49327). Briefly: Fatty Acid Synthase keto-reductase domain (FASN KR) inhibition, NADPH oxidation at 340 nm.
Fatty Acid Synthase Keto-reductase Domain (FASN KR), sequence (P49327 whole entry, the tested form may be a part): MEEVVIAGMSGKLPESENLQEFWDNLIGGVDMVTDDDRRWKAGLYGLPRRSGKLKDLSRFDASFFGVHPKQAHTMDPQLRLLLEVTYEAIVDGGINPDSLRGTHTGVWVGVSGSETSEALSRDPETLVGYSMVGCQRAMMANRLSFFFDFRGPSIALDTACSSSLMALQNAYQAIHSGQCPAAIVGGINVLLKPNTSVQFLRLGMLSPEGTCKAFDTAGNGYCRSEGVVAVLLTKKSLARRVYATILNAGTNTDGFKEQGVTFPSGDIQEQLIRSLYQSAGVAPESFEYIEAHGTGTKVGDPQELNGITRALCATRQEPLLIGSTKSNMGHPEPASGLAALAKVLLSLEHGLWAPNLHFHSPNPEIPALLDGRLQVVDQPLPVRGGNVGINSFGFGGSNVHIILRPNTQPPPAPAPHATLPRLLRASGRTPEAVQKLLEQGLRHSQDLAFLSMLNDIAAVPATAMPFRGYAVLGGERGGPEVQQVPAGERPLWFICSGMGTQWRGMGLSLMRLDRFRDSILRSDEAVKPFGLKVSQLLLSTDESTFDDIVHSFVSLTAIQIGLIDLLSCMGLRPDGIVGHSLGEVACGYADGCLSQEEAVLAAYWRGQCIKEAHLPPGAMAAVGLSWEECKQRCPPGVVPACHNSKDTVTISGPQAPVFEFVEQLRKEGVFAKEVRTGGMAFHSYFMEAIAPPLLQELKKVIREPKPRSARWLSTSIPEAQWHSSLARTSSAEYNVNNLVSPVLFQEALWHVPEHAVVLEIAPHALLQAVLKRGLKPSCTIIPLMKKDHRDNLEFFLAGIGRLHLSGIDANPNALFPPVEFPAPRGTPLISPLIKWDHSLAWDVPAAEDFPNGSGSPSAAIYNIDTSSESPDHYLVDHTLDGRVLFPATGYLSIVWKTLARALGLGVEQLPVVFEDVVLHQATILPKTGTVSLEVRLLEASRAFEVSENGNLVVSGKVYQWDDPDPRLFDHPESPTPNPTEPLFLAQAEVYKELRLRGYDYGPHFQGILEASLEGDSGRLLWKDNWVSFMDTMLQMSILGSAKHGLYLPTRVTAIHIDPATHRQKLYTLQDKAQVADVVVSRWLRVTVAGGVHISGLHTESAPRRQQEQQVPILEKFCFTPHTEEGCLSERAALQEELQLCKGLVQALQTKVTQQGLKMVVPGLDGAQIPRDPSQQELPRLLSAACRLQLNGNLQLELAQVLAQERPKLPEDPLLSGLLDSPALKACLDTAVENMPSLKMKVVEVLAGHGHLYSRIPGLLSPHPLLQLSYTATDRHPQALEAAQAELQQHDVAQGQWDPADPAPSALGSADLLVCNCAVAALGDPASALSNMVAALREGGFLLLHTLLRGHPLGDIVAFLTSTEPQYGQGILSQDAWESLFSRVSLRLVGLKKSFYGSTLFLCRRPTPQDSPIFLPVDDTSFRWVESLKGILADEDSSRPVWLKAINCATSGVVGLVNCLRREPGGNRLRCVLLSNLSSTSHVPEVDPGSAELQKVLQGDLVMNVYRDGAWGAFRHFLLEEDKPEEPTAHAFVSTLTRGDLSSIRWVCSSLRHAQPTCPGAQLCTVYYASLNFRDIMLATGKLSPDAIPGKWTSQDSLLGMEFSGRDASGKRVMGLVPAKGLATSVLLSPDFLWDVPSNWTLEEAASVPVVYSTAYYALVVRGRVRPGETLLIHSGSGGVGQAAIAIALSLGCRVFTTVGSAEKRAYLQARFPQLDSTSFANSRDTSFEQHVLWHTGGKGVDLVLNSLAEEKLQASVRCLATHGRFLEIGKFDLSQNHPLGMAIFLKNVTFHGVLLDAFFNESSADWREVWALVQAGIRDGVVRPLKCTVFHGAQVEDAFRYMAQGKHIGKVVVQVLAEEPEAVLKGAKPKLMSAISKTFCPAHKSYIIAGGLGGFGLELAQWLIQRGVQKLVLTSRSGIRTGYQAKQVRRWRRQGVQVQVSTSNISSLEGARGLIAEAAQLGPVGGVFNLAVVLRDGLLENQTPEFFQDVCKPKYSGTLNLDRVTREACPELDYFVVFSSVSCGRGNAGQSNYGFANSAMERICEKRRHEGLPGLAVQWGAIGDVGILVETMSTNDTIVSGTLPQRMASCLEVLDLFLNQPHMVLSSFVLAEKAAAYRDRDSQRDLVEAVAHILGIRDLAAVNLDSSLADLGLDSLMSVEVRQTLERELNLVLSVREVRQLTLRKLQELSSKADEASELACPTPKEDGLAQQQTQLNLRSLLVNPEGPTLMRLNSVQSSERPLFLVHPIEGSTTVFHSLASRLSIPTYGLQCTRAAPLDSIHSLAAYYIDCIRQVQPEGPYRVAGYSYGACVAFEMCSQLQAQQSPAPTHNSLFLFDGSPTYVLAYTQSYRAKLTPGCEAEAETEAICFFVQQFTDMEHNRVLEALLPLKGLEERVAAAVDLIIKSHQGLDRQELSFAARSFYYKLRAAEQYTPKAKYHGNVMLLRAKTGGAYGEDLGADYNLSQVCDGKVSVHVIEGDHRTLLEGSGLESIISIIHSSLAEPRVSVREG
Experimental: After 20 minutes incubation at room temperature the plate was measured again (T2).
The decrease in absorbance was calculated as (Absorbance before incubation T1)−(Absorbance following incubation T2).
A plot of Controlmin versus test compound concentration was fitted to a 4-parameter logistic curve using a non-linear least squares regression method.
Assay [2] addresses T1, hFASN enzyme (full length) (Homo sapiens, UniProt P49327).
T1 construct: 10 μL hFASN enzyme (full length, 300 ng, purified in house); made in house
Briefly: Fatty Acid Synthase (FASN) inhibition scintillation proximity assay. The format is biochemical. Particulars: for inhibition at 10 µM: read-out: Human FASN % inhibition @ 10 μM, 10 μM test compound; for IC50: read-out: Human FASN pIC50 (converted). The method in brief: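 Purified full-length hFASN (300 ng) converts ^3H-acetyl-CoA plus malonyl-CoA to ^3H-palmitate in 100 mM KH2PO4 pH 7.5, 1 mM DTT; compounds tested at 0.01–30 μM. Product captured on streptavidin imaging beads and read by LEADseeker at 610 nm after ≥24 h; 4-parameter logistic fit versus controls.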
A general note: In a scintillation proximity assay essentially only radioactivity close to the scintillant gives light.

The subject of assay [3] is A2780 ovarian cells. Briefly: A2780 ovarian cell proliferation assay in lipid reduced medium, with palmitate (MTT). The format is cell-based. The settings on record: Homo sapiens, A2780, 96 h; read-out: pIC50 A2780 Ovarian Cell, With Palmitate (converted). In a few lines: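 Seeded cells were switched next day to lipid-reduced serum, exposed to compound and 25 μM palmitate complexed with fatty-acid-free BSA, and incubated 96 h. Proliferation was then determined by MTT absorbance at 544 nm, with a best-fit curve of signal against concentration.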

In assay [4] the test system is A2780 ovarian cells. Briefly: A2780 ovarian cell proliferation assay in lipid reduced medium, without palmitate (MTT). The format is cell-based. Particulars: Homo sapiens, A2780, 96 h; read-out: pIC50 A2780 Ovarian Cell, Without Palmitate (converted).

T1 sequence (P49327 whole entry): as the sequence (P49327 whole entry, the tested form may be a part) above

With `Cn1ncc2ccc(-c3ccc(C4=NC5(CC5)C(=O)N4CC4CN(C(=O)C5CC5)C4)cc3)cc21` [compound 38, 6-{[1-(Cyclopropylcarbonyl)azetidin-3-yl]methyl}-5-[4-(1-methyl-1H-indazol-6-yl)phenyl]-4,6-diazaspiro[2.4]hept-4-en-7-one], the IC50 is 646 nM in assay [1], 269 nM in assay [2], over 10000 nM with A2780 ovarian cells [3] and 1200 nM with A2780 ovarian cells [4]. Further, the inhibition at 10 µM in assay [2] turned out to be 94.9%.
The matching figures for `O=C(C1CC1)N1CC(CN2C(=O)C3(CC3)N=C2c2ccc(-c3ccc4[nH]ccc4c3)cc2)C1` [compound 40, 6-{[1-(Cyclopropylcarbonyl)azetidin-3-yl]methyl}-5-[4-(1H-indol-5-yl)phenyl]-4,6-diazaspiro[2.4]hept-4-en-7-one]: 42.7 nM, 18.6 nM, over 10000 nM, 72.4 nM and 106%.
On to `N#Cc1ccc(-c2ccc(C3=NC4(CC4)C(=O)N3CC3CN(C(=O)C4CC4)C3)cc2)cc1` [compound 41, 4′-(6-{[1-(Cyclopropylcarbonyl)azetidin-3-yl]methyl}-7-oxo-4,6-diazaspiro[2.4]hept-4-en-5-yl)biphenyl-4-carbonitrile], for which the IC50 in assay [1] is 851 nM; in assay [2] it was 457 nM; in the assay on A2780 ovarian cells [3], over 10000 nM; with A2780 ovarian cells [4], 1200 nM. Further, the inhibition at 10 µM in assay [2] stood at 92.6%.
The matching figures for `N#Cc1ccc(-c2ccc(C3=NC4(CC4)C(=O)N3C[C@@H]3CCN(C(=O)C4CC4)C3)cc2)cc1` [compound 48, 4′-(6-{[(3R)-1-(Cyclopropylcarbonyl)pyrrolidin-3-yl]methyl}-7-oxo-4,6-diazaspiro[2.4]hept-4-en-5-yl)biphenyl-4-carbonitrile]: 282 nM, 97.7 nM, over 10000 nM, 182 nM and 108%.
The corresponding values for `O=C(C1CC1)N1CC(CN2C(=O)C3(CC3)N=C2c2ccc(-c3ccc4[nH]ncc4c3)cc2)C1` [compound 51, 6-{[1-(Cyclopropylcarbonyl)azetidin-3-yl]methyl}-5-[4-(1H-indazol-5-yl)phenyl]-4,6-diazaspiro[2.4]hept-4-en-7-one] are 162 nM, 79.4 nM, over 10000 nM, 123 nM and 102%.
Turning to `O=C(C1CC1)N1CC(CN2C(=O)C3(CC3)N=C2c2ccc(-c3ccc4ocnc4c3)cc2)C1` [compound 52, 5-[4-(1,3-Benzoxazol-5-yl)phenyl]-6-{[1-(cyclopropylcarbonyl)azetidin-3-yl]methyl}-4,6-diazaspiro[2.4]hept-4-en-7-one], the IC50 in assay [1] was 1780 nM; in assay [2], 759 nM; in the assay on A2780 ovarian cells [3], over 10000 nM; in the assay with A2780 ovarian cells [4] it was 1860 nM. The inhibition at 10 µM in assay [2] was 89.9%.
The matching figures for `Cn1cc(-c2ccc(-c3ccc(C4=NC5(CC5)C(=O)N4CC4CCN(C(=O)C5CC5)CC4)cc3)cc2)cn1` [compound 56, 6-{[1-(Cyclopropylcarbonyl)piperidin-4-yl]methyl}-5-[4′-(1-methyl-1H-p;yrazol-4-yl)biphenyl-4-yl]-4,6-diazaspiro[2.4]hept-4-en-7-one]: 1380 nM, 407 nM, 6030 nM, 1580 nM and 89.2%.
The matching figures for `O=C(C1CC1)N1CCC(CN2C(=O)C3(CC3)N=C2c2ccc(-c3ccc4scnc4c3)cc2)CC1` [compound 57, 5-[4-(1,3-Benzothiazol-5-yl)phenyl]-6-{[1-(cyclopropylcarbonyl)piperidin-4-yl]methyl}-4,6-diazaspiro[2.4]hept-4-en-7-one]: 1700 nM, 759 nM, over 10000 nM, 2510 nM and 88.1%.
